Source: the supplement of paper PMC10290057
Where a name gives a salt, the structure may show the parent alone.

What was measured:
HCT116 [1] = experiment: efficacy (fitted maximal change in viability relative to DMSO control); higher = less cytotoxic (negative = loss of viability); conditions: 48 h
HCT116 [2] = experiment: AC50 cell viability (CellTiter-Glo); higher = less potent; conditions: 48 h
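Throughout, for AC50 cell viability (CellTiter-Glo): HCT116 colorectal carcinoma cells screened at five concentrations per compound, luminescent viability scaled between DMSO wells and empty wells on each plate, curves fitted per compound.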
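Throughout, for efficacy (fitted maximal change in viability relative to DMSO control): Luminescence-based viability readout, five doses per compound, normalized against on-plate DMSO and empty-well controls, followed by dose-response curve fitting for every drug.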

Row | SMILES | efficacy (HCT116 [1]) [%] | AC50 cell viability (HCT116 [2]) [µM]
1 | O=c1[nH]c2ccccc2n1CCCN1CCC(n2c(=O)[nH]c3cc(Cl)ccc32)CC1 [Domperidone] | -68 | 18.6
2 | Cc1ccc(-n2nc(C(C)(C)C)cc2NC(=O)Nc2ccc(OCCN3CCOCC3)c3ccccc23)cc1 [Doramapimod] | -76.9 | 20.9
3 | c1cc(-c2cnn3cc(-c4ccc(OCCN5CCCCC5)cc4)cnc23)ccn1 [Dorsomorphin] | -82.7 | 4.68
4 | CN1CCN(CC1)C2=CC3=C([NH]C(=N3)C/4=C(\N)C5=C(F)C=CC=C5NC4=O)C=C2 [Dovitinib] | -106 | 8.33
5 | C=C1/C(=C\C=C2/CCC[C@]3(C)[C@@H]([C@H](C)/C=C/[C@H](C)C(C)C)CC[C@@H]23)C[C@@H](O)C[C@@H]1O [Doxercalciferol] | -85.4 | 23.5
6 | C[C@H]1O[C@H]([C@H](O)[C@@H]1O)N2\C=C(F)/C(=O)NC2=O [Doxifluridine] | -68.1 | 7.42
7 | COc1cccc2c1C(=O)c1c(O)c3c(c(O)c1C2=O)C[C@@](O)(C(=O)CO)C[C@@H]3O[C@H]1C[C@H](N)[C@H](O)[C@H](C)O1 [Doxorubicin] | -75.3 | 0.372
8 | CCCCc1oc2ccc(N[S+](C)(=O)[O-])cc2c1C(=O)c1ccc(OCCCN(CCCC)CCCC)cc1 [Dronedarone hydrochloride] | -102 | 8.33
9 | Cc1cc(Cl)ccc1OCCCC(=O)NO [Droxinostat] | -57.1 | 20.9
10 | C[C@H](NC1=C2N=C[NH]C2=NC=N1)C/3=C/C4=C(C(=CC=C4)Cl)C(=O)N3C5=CC=CC=C5 [Duvelisib] | -72 | 18.6
11 | CCOc1cc2c(c(F)c1OCC)C(=N)N(CC(=O)c1cc(N3CCOCC3)c(OC)c(C(C)(C)C)c1)C2 [E5555] | -77 | 7.42
12 | COc1ccc([S+](=O)([O-])Nc2cccnc2Nc2ccc(O)cc2)cc1 [E-7010] | -63.2 | 0.59
13 | Cc1ccc(N[S+](=O)([O-])c2cccc(C#N)c2)c2[nH]cc(C#N)c12 [E-7820] | -53.2 | 0.417
14 | Cc1ccccc1C(=O)c1ccc(Nc2ccc(Br)cc2N)cc1Cl [EO-1428] | -75.8 | 20.9
15 | CS[C@H]1SC[C@@H]2C(=O)N(C)[C@H](C(C)C)C(=O)OC[C@H](NC(=O)c3cnc4ccccc4n3)C(=O)N[C@H](C)C(=O)N(C)[C@H]1C(=O)N(C)[C@H](C(C)C)C(=O)OC[C@H](NC(=O)c1cnc3ccccc3n1)C(=O)N[C@H](C)C(=O)N2C [Echinomycin] | -72.6 | 0.00372
16 | Clc1ccc(COC(Cn2ccnc2)c2ccc(Cl)cc2Cl)cc1 (stereo unspecified) [Econazole nitrate] | -83.5 | 20.9
17 | CC1(C)C(N(O)C(=O)Nc2ccc(Cl)cc2)N(c2ccc(Cl)cc2)C(=O)N1CC(=O)N/N=C/C=C/c1ccc([N+](=O)[O-])o1 (stereo unspecified) [Eeyarestatin I] | -89.8 | 8.33
18 | O=C1Nc2ccc(Cl)cc2[C@@](C#CC2CC2)(C(F)(F)F)O1 [Efavirenz] | -97.1 | 26.3
19 | CCNCCc1ccc(CN(CC)c2cc(OC)ccc2[C@@H]2CCc3cc(O)ccc3C2)cc1 [Elacestrant] | -96.5 | 7.42
20 | CSc1ccc(C(=O)/C=C/c2cc(C)c(OC(C)(C)C(=O)O)c(C)c2)cc1 [Elafibranor] | -75.5 | 30.3
21 | NC(=O)/C(=C/n1cnc(-c2cc(C(F)(F)F)cc(C(F)(F)F)c2)n1)c1cncnc1 [Eltanexor] | -78.9 | 0.295
22 | CC[C@H]1CN2CCc3cc(OC)c(OC)cc3[C@@H]2C[C@@H]1C[C@H]1NCCc2cc(OC)c(OC)cc21 [Emetine] | -73.6 | 0.0833
23 | C[C@H](NC(=O)C(=O)Nc1ccccc1C(C)(C)C)C(=O)N[C@@H](CC(=O)O)C(=O)COc1c(F)c(F)cc(F)c1F [Emricasan] | -89.4 | 13.2
24 | CC(C)(O)CNc1nc(Nc2ccnc(C(F)(F)F)c2)nc(-c2cccc(C(F)(F)F)n2)n1 [Enasidenib] | -71.3 | 18.6
25 | COC(=O)N[C@@H](C)CNc1nccc(-c2cn(C(C)C)nc2-c2cc(Cl)cc(N[S+](C)(=O)[O-])c2F)n1 [Encorafenib] | -52.7 | 4.17
26 | Nc1ccccc1NC(=O)c1ccc(CNC(=O)OCc2cccnc2)cc1 [Entinostat] | -83.4 | 2.95
27 | c1cn2cc(-c3ccc4cn[nH]c4c3)nc(Nc3ccc(N4CCOCC4)cc3)c2n1 [Entospletinib] | -34.9 | 5.9

Row | SMILES | efficacy (HCT116 [1]) [%] | AC50 cell viability (HCT116 [2]) [µM]
28 | CN1CCN(c2ccc(C(=O)Nc3n[nH]c4ccc(Cc5cc(F)cc(F)c5)cc34)c(NC3CCOCC3)c2)CC1 [Entrectinib] | -101 | 5.25
29 | C[N]1C=C(C2=CC=CC=C12)\C3=C(\C(=O)NC3=O)C4=C[N](C5CCN(CC5)CC6=NC=CC=C6)C7=C4C=CC=C7 [Enzastaurin] | -56.4 | 14.8
30 | Nc1nc(N)c2nc(-c3cccc(Cl)c3)c(N)nc2n1 [Epiblastin A] | -85 | 1.66
31 | COc1cccc2c1C(=O)c1c(O)c3c(c(O)c1C2=O)C[C@@](O)(C(=O)CO)C[C@@H]3O[C@H]1C[C@H](N)[C@@H](O)[C@H](C)O1 [Epirubicin hydrochloride] | -77.8 | 0.372
32 | COC(=O)[C@H]1[C@@H](O)[C@@]2(O)c3c(OC)cc(O[C@@H]4O[C@@H]([C@@H](O)CO)CO[C@H]4OC)cc3O[C@@]2(c2ccc(OC)cc2)[C@@H]1c1ccccc1 [Episilvestrol] | -54.9 | 8.33
33 | C/C(=C\c1csc(C)n1)[C@@H]1C[C@@H]2O[C@]2(C)CCC[C@H](C)[C@H](O)[C@@H](C)C(=O)C(C)(C)[C@@H](O)CC(=O)O1 [Epothilone B] | -49.2 | 0.00662
34 | C/C1=C/C[C@@H](/C(C)=C/c2csc(C)n2)OC(=O)C[C@H](O)C(C)(C)C(=O)[C@H](C)[C@@H](O)[C@@H](C)CCC1 [Epothilone D] | -60.3 | 0.0166
35 | CCOC1=CC=CC=C1N\2C(=O)C3=C(C=CC=C3)\N=C2C(C)N4CCN(CC4)C(=O)COC5=CC=C(Cl)C=C5 (stereo unspecified) [Erastin] | -70.4 | 3.32
36 | COc1cc(OC)cc(N(CCNC(C)C)c2ccc3ncc(-c4cnn(C)c4)nc3c2)c1 [Erdafitinib] | -123 | 13.2
37 | C=C1C[C@@H]2CC[C@@]34C[C@H]5O[C@H]6[C@@H](O3)[C@H]3O[C@H](CC[C@@H]3O[C@H]6[C@H]5O4)CC(=O)C[C@@H]3[C@@H](OC)[C@@H](C[C@H](O)CN)O[C@H]3C[C@H]3O[C@@H](CC[C@@H]1O2)C[C@@H](C)C3=C [Eribulin mesylate] | -56.4 | 0.00241
38 | C#Cc1cccc(Nc2ncnc3cc(OCCOC)c(OCCOC)cc23)c1 [Erlotinib] | -47.1 | 9.34
39 | Oc1ccc([C@@H]2Oc3ccc(O)cc3[C@@H]3CCC[C@@H]32)cc1 [Erteberel] | -73.8 | 7.42
40 | C[C@]12CC[C@@H]3c4ccc(O)cc4CC[C@H]3[C@@H]1CC[C@@H]2O [Estradiol] | -60.4 | 20.9
41 | CCOC(=O)[C@@]1(CCCCCCOc2ccc(Cl)cc2)CO1 [Etomoxir] | -42.1 | 18.6
42 | COc1cc([C@@H]2c3cc4c(cc3[C@@H](O[C@@H]3O[C@@H]5CO[C@@H](C)O[C@H]5[C@H](O)[C@H]3O)[C@H]3COC(=O)[C@H]23)OCO4)cc(OC)c1O [Etoposide] | -41.9 | 2.95
43 | C=CC(=O)N1CCC(CNc2ncnc(N)c2-c2ccc(Oc3ccccc3)cc2)CC1 [Evobrutinib] | -43.5 | 4.68
44 | CN1c2ccccc2C(=O)N2CCc3c([nH]c4ccccc34)C21 (stereo unspecified) [Evodiamine] | -64.2 | 1.66
45 | CC[C@@]1(O)C(=O)OC/C2=C1/C=C3\N(CC4=C5[C@@H](N)CCC6=C5C(=CC(=C6C)F)N=C34)C2=O [Exatecan] | -64 | 0.0417
46 | C[C@]12CC[C@H]3[C@@H](CC(=C)\C4=C\C(=O)\C=C/[C@]34C)[C@@H]1CCC2=O [Exemestane] | -65 | 18.6
47 | C=CC[C@@H]1/C=C(\C)C[C@H](C)C[C@H](OC)[C@H]2O[C@@](O)(C(=O)C(=O)N3CCCC[C@H]3C(=O)O[C@H](/C(C)=C/[C@@H]3CC[C@@H](O)[C@H](OC)C3)[C@H](C)[C@@H](O)CC1=O)[C@H](C)C[C@@H]2OC [FK-506] | -91.2 | 23.5
48 | CCN1C(=O)\C(=C/C2=C1N=C(NC3=CC=C(N4CCNCC4)C(=C3)F)N=C2)C5=CC=C(Cl)C=C5Cl [FRAX-486] | -32.6 | 2.63
49 | CCN1C(=O)\C(=C/C2=CN=C(NC3=CC=C(C=C3)N4CCN(C)CC4)N=C12)C5=C(Cl)C=C(C=C5)C6=CN=CS6 [FRAX-597] | -59 | 5.9
50 | CCOC(=N)c1nc2ccc3ncnc(Nc4cc(F)c(F)cc4Cl)c3c2s1 [FX-9847] | -41.6 | 4.68
51 | O=C1c2ccccc2-[n+]2ccc3c([nH]c4ccccc43)c21 [Fascaplysin] | -88.3 | 0.742
52 | O=[S+]([O-])(c1cccc2cnccc12)N1CCCNCC1 [Fasudil hydrochloride] | -49.1 | 18.6
53 | COC(=O)Nc1nc2cc(Sc3ccccc3)ccc2[nH]1 [Fenbendazole] | -79.7 | 1.05
